Reference: patent publication US12209144B2, “Cyclic peptides as proprotein convertase subtilisin/kexin type 9 (PCSK9) inhibitors for the treatment of metabolic disorders” (Novartis AG, priority 2018, dated 2025)
pIC50: −log10 of the molar value. Bridge positions count the residues as written; N and C are the ends. Square brackets hold non-standard residues; d marks the D form. Peptide text beside a SMILES is read from it. Phe(3,4-Cl2) = N[C@@H](Cc1ccc(Cl)c(Cl)c1)C(=O)O; Bip = N[C@@H](Cc1ccc(-c2ccccc2)cc1)C(=O)O; Phe(3-F) = N[C@@H](Cc1cccc(F)c1)C(=O)O; NMeF = CN[C@@H](Cc1ccccc1)C(=O)O; NMeA = CN[C@@H](C)C(=O)O

Molecular target: human PCSK9 (Homo sapiens, UniProt Q8NBP7)
Sequence (Q8NBP7 153-692): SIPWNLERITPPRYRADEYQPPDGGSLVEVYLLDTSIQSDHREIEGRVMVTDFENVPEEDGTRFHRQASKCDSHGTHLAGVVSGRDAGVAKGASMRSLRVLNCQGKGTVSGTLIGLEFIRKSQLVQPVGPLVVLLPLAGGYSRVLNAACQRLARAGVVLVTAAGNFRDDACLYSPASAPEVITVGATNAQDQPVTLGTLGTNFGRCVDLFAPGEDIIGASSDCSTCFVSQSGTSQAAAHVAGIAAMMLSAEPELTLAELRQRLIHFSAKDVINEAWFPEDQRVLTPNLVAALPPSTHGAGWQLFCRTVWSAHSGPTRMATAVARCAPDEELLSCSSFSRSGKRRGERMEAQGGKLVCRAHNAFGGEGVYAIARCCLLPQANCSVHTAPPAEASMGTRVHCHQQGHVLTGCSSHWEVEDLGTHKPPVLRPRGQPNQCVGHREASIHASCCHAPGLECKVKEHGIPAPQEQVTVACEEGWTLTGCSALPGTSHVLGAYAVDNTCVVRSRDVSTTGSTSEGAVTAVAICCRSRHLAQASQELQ
Sequence (Q8NBP7 31-152 partner limits assumed): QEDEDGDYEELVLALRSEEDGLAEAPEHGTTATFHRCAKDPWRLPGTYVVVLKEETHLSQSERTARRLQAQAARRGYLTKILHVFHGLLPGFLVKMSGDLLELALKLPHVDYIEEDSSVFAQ
Experiment: PCSK9 ligand binding assay (TR-FRET): interference with binding of human PCSK9 to human LDLR
Conditions: PCSK9 FRET assay, efficacy (Amax); 0% = DMSO, 100% = 1 uM unlabeled human PCSK9
Protocol: The activity of cyclic polypeptides according to the disclosure as PCSK9 can be assessed using a time resolved fluorescence resonance energy transfer (TR-FRET) assay. This time resolved fluorescence resonance energy transfer (TR-FRET) assay measures the ability of a cyclic polypeptides of the disclosure to interfere with the binding of human PCSK9 to human LDLR, providing measures of both potency (IC50) and efficacy (Amax).
Solutions of varying concentrations are prepared by diluting a cyclic polypeptide of the disclosure in dimethylsulfoxide (DMSO) and the resulting solutions are pipetted into a plate. DMSO is used as a negative control. An intermediate plate is prepared in by transferring a known amount of each polypeptide solution and of the control from the compound plate into a corresponding well containing assay buffer and mixing thoroughly. A third plate is then prepared to be used for the assay by adding Human PCSK9 Alexa Fluor 647, followed by a known amount of each solution from the intermediate plate. Unlabeled human PCSK9 in assay buffer containing DMSO is used as a positive control for the assay. Following incubation, Human LDLR extracellular domain-Europium Kryptate is added to each well of the assay plate and the resulting mixture is incubated for an additional period of time. The TR-FRET signal is measured and the FRET ratio (FRET/Europium) is used to calculate the IC50 and Amax of the cyclic polypeptides.
The PCSK9 binding of the cyclic polypeptides of the disclosure were measured using a time resolved fluorescence resonance energy transfer (TR-FRET) assay. This time resolved fluorescence resonance energy transfer (TR-FRET) assay measures the ability of a cyclic polypeptide of the disclosure to interfere with the binding of human PCSK9 to human LDLR, providing measures of both potency (IC50) and efficacy (Amax).
• Human PCSK9 • Human PCSK9 Alexa Fluor 647 • Human LDLR extracellular domain-Europium Kryptate • Proxi plate-low volume assay plate (PerkinElmer #6008280) • Greiner V-bottom (Greiner BioOne #781280) • Assay Buffer • 20 mM HEPES, pH 7.5 • 150 mM NaCl • 1 mM CaCl2 • 0.01% v/v Tween20 • 0.01% w/v BSA
A master compound plate was prepared in a Greiner V bottom plate by diluting cyclic polypeptides of the disclosure in dimethylsulfoxide to the correct concentration for the desired top concentration based on the desired final concentration: for a 30 uM final concentration the master plate concentration is 1.5 mM (68 uL DMSO+12 uL 10 mM of a cyclic polypeptide of the disclosure), for a 10 uM final concentration the master plate concentration is 0.5 mM (76 uL DMSO+4 uL 10 mM of a cyclic polypeptide of the disclosure), for a 3 uM final concentration the master plate concentration is 150 uM (69 uL DMSO+1 uL 10 mM a cyclic peptide of the disclosure). These solutions were pipetted into columns 1 and 11 of the compound plate. Threefold serial dilutions were generated in columns 2-10 and 12-20 of the compound plate by transferring 10 uL into 20 μL of DMSO. Columns 21 and 22 of the compound plate were negative controls containing DMSO alone.
An intermediate plate was generated in a Greiner V bottom plate by transferring 8 uL from each well of the master plate into a corresponding well containing 92 μL of assay buffer and mixing thoroughly.
A Proxi plate-low volume assay plate was used for the assay. To all wells of the plate was added 10 μL of 16 nM Human PCSK9 Alexa Fluor 647, followed by 5 uL from the intermediate plate. […] Following a 30 minute incubation, 5 μL of 4 nM Human LDLR extracellular domain-Europium Kryptate was added and the mixture was incubated for an additional 2 hours.
The TR-FRET signal was measured on an EnVision or PheraStar instrument with a […] delay, 330 nm excitation and 665 nm emission (FRET), and 330 nm excitation and 615 nm (Europium). The FRET ratio (FRET/Europium) was used for calculations. […]

Row | SMILES | Maximum % inhibition [%]
1 | CC(C)[C@@H]1NC(=O)[C@H](Cc2ccccc2)NC(=O)CSC[C@@H](C(=O)NCC(N)=O)NC(=O)[C@@H]2CCCN2C(=O)[C@H](CO)NC(=O)[C@H](CCC(=O)O)NC(=O)[C@H](C)N(C)C(=O)[C@H](Cc2ccc(-c3ccccc3)cc2)NC(=O)[C@H](Cc2ccccc2)N(C)C(=O)[C@H](CO)NC(=O)[C@H]([C@@H](C)O)NC(=O)[C@H]([C@@H](C)O)NC(=O)[C@H](CO)NC1=O [Example 1-12, Ac*-F-V-S-T-T-S-(N-Me)F-B-(N-Me)A-E-S-P-C*-G-NH2] ({CH2CO}-FVSTTS[NMeF][Bip][NMeA]ESPCG-NH2; thioether N-13) | 87
2 | CC(C)[C@@H]1NC(=O)[C@H](Cc2ccccc2)NC(=O)CSC[C@@H](C(=O)NCC(N)=O)NC(=O)[C@@H]2CCCN2C(=O)[C@H](CO)NC(=O)[C@H](CCC(=O)O)NC(=O)[C@H](C)N(C)C(=O)[C@H](Cc2ccc(-c3ccccc3)cc2)NC(=O)[C@H](Cc2ccccc2)N(C)C(=O)[C@H](Cc2ccc(-c3ccccc3)cc2)NC(=O)[C@H]([C@@H](C)O)NC(=O)[C@H]([C@@H](C)O)NC(=O)[C@H](CO)NC1=O [Example 1-13, Ac*-F-V-S-T-T-B-(N-Me)F-B-(N-Me)A-E-S-P-C*-G-NH2] ({CH2CO}-FVSTT[Bip][NMeF][Bip][NMeA]ESPCG-NH2; thioether N-13) | 86
3 | CC(C)[C@@H]1NC(=O)[C@H](Cc2ccccc2)NC(=O)CSC[C@@H](C(=O)NCC(N)=O)NC(=O)[C@@H]2CCCN2C(=O)[C@H](CCCNC(=N)N)NC(=O)[C@H](CC(=O)O)NC(=O)[C@H](C)N(C)C(=O)[C@H](Cc2ccc(Cl)c(Cl)c2)NC(=O)[C@H](C)N(C)C(=O)[C@H](Cc2ccc(-c3ccccc3)cc2)NC(=O)[C@H]([C@@H](C)O)NC(=O)[C@H]([C@@H](C)O)NC(=O)[C@H](CO)NC1=O [Example 1-14, Ac*-F-V-S-T-T-B-(N-Me)A-(3,4-diCl)F-(N-Me)A-D-R-P-C*-G-NH2] ({CH2CO}-FVSTT[Bip][NMeA][Phe(3,4-Cl2)][NMeA]DRPCG-NH2; thioether N-13) | 49
4 | CC(C)[C@@H]1NC(=O)[C@H](Cc2ccccc2)NC(=O)CSC[C@@H](C(=O)NCC(N)=O)NC(=O)[C@@H]2CCCN2C(=O)[C@H](CCCNC(=N)N)NC(=O)[C@H](CC(=O)O)NC(=O)[C@H](C)N(C)C(=O)[C@H](Cc2cccc(F)c2)NC(=O)[C@H](C)N(C)C(=O)[C@H](Cc2ccc(-c3ccccc3)cc2)NC(=O)[C@H]([C@@H](C)O)NC(=O)[C@H]([C@@H](C)O)NC(=O)[C@H](CO)NC1=O [Example 1-15, Ac*-F-V-S-T-T-B-(N-Me)A-(3-F)F-(N-Me)A-D-R-P-C*-G-NH2] ({CH2CO}-FVSTT[Bip][NMeA][Phe(3-F)][NMeA]DRPCG-NH2; thioether N-13) | 53
5 | CC(C)[C@@H]1NC(=O)[C@H](Cc2ccccc2)NC(=O)CSC[C@@H](C(=O)NCC(N)=O)NC(=O)[C@@H]2CCCN2C(=O)[C@H](C)NC(=O)[C@H](CCC(=O)O)NC(=O)[C@H](C)N(C)C(=O)[C@H](Cc2ccc(-c3ccccc3)cc2)NC(=O)[C@H](Cc2ccccc2)N(C)C(=O)[C@H](C)NC(=O)[C@H]([C@@H](C)O)NC(=O)[C@H]([C@@H](C)O)NC(=O)[C@H](CC(=O)O)NC1=O [Example 1-16, Ac*-F-V-D-T-T-A-(N-Me)F-B-(N-Me)A-E-A-P-C*-G-NH2] ({CH2CO}-FVDTTA[NMeF][Bip][NMeA]EAPCG-NH2; thioether N-13) | 91
6 | CC(C)[C@@H]1NC(=O)[C@H](Cc2ccccc2)NC(=O)CSC[C@@H](C(=O)NCC(N)=O)NC(=O)[C@@H]2CCCN2C(=O)[C@H](CO)NC(=O)[C@H](CCC(=O)O)NC(=O)[C@H](C)N(C)C(=O)[C@H](Cc2ccc(-c3ccccc3)cc2)NC(=O)[C@H](C)N(C)C(=O)[C@H](Cc2ccccc2)NC(=O)[C@H]([C@@H](C)O)NC(=O)[C@H]([C@@H](C)O)NC(=O)[C@H](CC(=O)O)NC1=O [Example 1-17, Ac*-F-V-D-T-T-F-(N-Me)A-B-(N-Me)A-E-S-P-C*-G-NH2] ({CH2CO}-FVDTTF[NMeA][Bip][NMeA]ESPCG-NH2; thioether N-13) | 91
7 | CC(C)[C@@H]1NC(=O)[C@H](Cc2ccccc2)NC(=O)CSC[C@@H](C(=O)NCC(N)=O)NC(=O)[C@@H]2CCCN2C(=O)[C@H](C)NC(=O)[C@H](CCC(N)=O)NC(=O)[C@H](C)N(C)C(=O)[C@H](Cc2ccc(-c3ccccc3)cc2)NC(=O)[C@H](Cc2ccccc2)N(C)C(=O)[C@H](C)NC(=O)[C@H]([C@@H](C)O)NC(=O)[C@H]([C@@H](C)O)NC(=O)[C@H](CC(N)=O)NC1=O [Example 1-18, Ac*-F-V-N-T-T-A-(N-Me)F-B-(N-Me)A-Q-A-P-C*-G-NH2] ({CH2CO}-FVNTTA[NMeF][Bip][NMeA]QAPCG-NH2; thioether N-13) | 53
8 | CC(C)[C@@H]1NC(=O)[C@H](Cc2ccccc2)NC(=O)CSC[C@@H](C(=O)NCC(N)=O)NC(=O)[C@@H]2CCCN2C(=O)[C@H](CCCNC(=N)N)NC(=O)[C@H](CC(=O)O)NC(=O)[C@H](C)N(C)C(=O)[C@H](Cc2ccc(-c3ccccc3)cc2)NC(=O)[C@H](C)N(C)C(=O)[C@H](Cc2ccc(-c3ccccc3)cc2)NC(=O)[C@H]([C@@H](C)O)NC(=O)[C@H]([C@@H](C)O)NC(=O)[C@@H]2CCCN2C1=O [Example 1-19, Ac*-F-V-P-T-T-B-(N-Me)A-B-(N-Me)A-D-R-P-C*-G-NH2] ({CH2CO}-FVPTT[Bip][NMeA][Bip][NMeA]DRPCG-NH2; thioether N-13) | 38

Next, values leading:

Row | Maximum % inhibition [%] | SMILES
9 | 35 | CC(C)[C@@H]1NC(=O)[C@H](Cc2ccccc2)NC(=O)CSC[C@@H](C(=O)NCC(N)=O)NC(=O)[C@@H]2CCCN2C(=O)[C@H](CO)NC(=O)[C@@H]2CCCN2C(=O)[C@H](C)N(C)C(=O)[C@H](Cc2ccc(-c3ccccc3)cc2)NC(=O)[C@H](C)N(C)C(=O)[C@H](Cc2ccc(-c3ccccc3)cc2)NC(=O)[C@H]([C@@H](C)O)NC(=O)[C@H]([C@@H](C)O)NC(=O)[C@H](CO)NC1=O [Example 1-20, Ac*-F-V-S-T-T-B-(N-Me)A-B-(N-Me)A-P-S-P-C*-G-NH2] ({CH2CO}-FVSTT[Bip][NMeA][Bip][NMeA]PSPCG-NH2; thioether N-13)
10 | 81 | CC(C)[C@@H]1NC(=O)[C@H](Cc2ccccc2)NC(=O)CSC[C@@H](C(=O)NCC(N)=O)NC(=O)[C@@H]2CCCN2C(=O)[C@H](C)NC(=O)[C@H](CCC(=O)O)NC(=O)[C@H](C)N(C)C(=O)[C@H](Cc2ccc(-c3ccccc3)cc2)NC(=O)[C@H](Cc2ccccc2)N(C)C(=O)[C@H](C)NC(=O)[C@H]([C@@H](C)O)NC(=O)[C@H]([C@@H](C)O)NC(=O)[C@@H]2CCCN2C1=O [Example 1-21, Ac*-F-V-P-T-T-A-(N-Me)F-B-(N-Me)A-E-A-P-C*-G-NH2] ({CH2CO}-FVPTTA[NMeF][Bip][NMeA]EAPCG-NH2; thioether N-13)
11 | 49 | CC(C)[C@@H]1NC(=O)[C@H](Cc2ccccc2)NC(=O)CSC[C@@H](C(=O)NCC(N)=O)NC(=O)[C@@H]2CCCN2C(=O)[C@H](C)NC(=O)[C@H](CCCCN)NC(=O)[C@H](C)N(C)C(=O)[C@H](Cc2ccc(-c3ccccc3)cc2)NC(=O)[C@H](C)N(C)C(=O)[C@H](Cc2ccccc2)NC(=O)[C@H]([C@@H](C)O)NC(=O)[C@H]([C@@H](C)O)NC(=O)[C@H](C)NC1=O [Example 1-22, Ac*-F-V-A-T-T-F-(N-Me)A-B-(N-Me)A-K-A-P-C*-G-NH2] ({CH2CO}-FVATTF[NMeA][Bip][NMeA]KAPCG-NH2; thioether N-13)

Same assay, conditions: TR-FRET; Human PCSK9 Alexa Fluor 647 and Human LDLR extracellular domain-Europium Kryptate

Row | pIC50 | SMILES
12 | 7.92 | CC(C)[C@@H]1NC(=O)[C@H](Cc2ccccc2)NC(=O)CSC[C@@H](C(=O)NCC(N)=O)NC(=O)[C@@H]2CCCN2C(=O)[C@H](CCCNC(=N)N)NC(=O)[C@H](CC(=O)O)NC(=O)[C@H](C)N(C)C(=O)[C@H](Cc2cccc(F)c2)NC(=O)[C@H](C)N(C)C(=O)[C@H](Cc2ccc(-c3ccccc3)cc2)NC(=O)[C@H]([C@@H](C)O)NC(=O)[C@H]([C@@H](C)O)NC(=O)[C@H](CO)NC1=O [Example 1-15, Ac*-F-V-S-T-T-B-(N-Me)A-(3-F)F-(N-Me)A-D-R-P-C*-G-NH2] ({CH2CO}-FVSTT[Bip][NMeA][Phe(3-F)][NMeA]DRPCG-NH2; thioether N-13)
13 | 7.92 | CC(C)[C@@H]1NC(=O)[C@H](Cc2ccccc2)NC(=O)CSC[C@@H](C(=O)NCC(N)=O)NC(=O)[C@@H]2CCCN2C(=O)[C@H](C)NC(=O)[C@H](CCCCN)NC(=O)[C@H](C)N(C)C(=O)[C@H](Cc2ccc(-c3ccccc3)cc2)NC(=O)[C@H](C)N(C)C(=O)[C@H](Cc2ccccc2)NC(=O)[C@H]([C@@H](C)O)NC(=O)[C@H]([C@@H](C)O)NC(=O)[C@H](C)NC1=O [Example 1-22, Ac*-F-V-A-T-T-F-(N-Me)A-B-(N-Me)A-K-A-P-C*-G-NH2] ({CH2CO}-FVATTF[NMeA][Bip][NMeA]KAPCG-NH2; thioether N-13)
